Like-named read-outs stand apart in the source and are kept apart here.
Key:
aldehyde oxidase (AOX) [1] = experiment: Metabolism kinetics of DACA and phthalazine in rabbit cytosol; details: for kcat: rabbit cytosol
aldehyde oxidase (AOX) [2] = target: T1, aldehyde oxidase (AOX) (Homo sapiens, UniProt Q06278); experiment: Metabolism kinetics of DACA and phthalazine in human cytosol
T1 sequence (Q06278 1-1338): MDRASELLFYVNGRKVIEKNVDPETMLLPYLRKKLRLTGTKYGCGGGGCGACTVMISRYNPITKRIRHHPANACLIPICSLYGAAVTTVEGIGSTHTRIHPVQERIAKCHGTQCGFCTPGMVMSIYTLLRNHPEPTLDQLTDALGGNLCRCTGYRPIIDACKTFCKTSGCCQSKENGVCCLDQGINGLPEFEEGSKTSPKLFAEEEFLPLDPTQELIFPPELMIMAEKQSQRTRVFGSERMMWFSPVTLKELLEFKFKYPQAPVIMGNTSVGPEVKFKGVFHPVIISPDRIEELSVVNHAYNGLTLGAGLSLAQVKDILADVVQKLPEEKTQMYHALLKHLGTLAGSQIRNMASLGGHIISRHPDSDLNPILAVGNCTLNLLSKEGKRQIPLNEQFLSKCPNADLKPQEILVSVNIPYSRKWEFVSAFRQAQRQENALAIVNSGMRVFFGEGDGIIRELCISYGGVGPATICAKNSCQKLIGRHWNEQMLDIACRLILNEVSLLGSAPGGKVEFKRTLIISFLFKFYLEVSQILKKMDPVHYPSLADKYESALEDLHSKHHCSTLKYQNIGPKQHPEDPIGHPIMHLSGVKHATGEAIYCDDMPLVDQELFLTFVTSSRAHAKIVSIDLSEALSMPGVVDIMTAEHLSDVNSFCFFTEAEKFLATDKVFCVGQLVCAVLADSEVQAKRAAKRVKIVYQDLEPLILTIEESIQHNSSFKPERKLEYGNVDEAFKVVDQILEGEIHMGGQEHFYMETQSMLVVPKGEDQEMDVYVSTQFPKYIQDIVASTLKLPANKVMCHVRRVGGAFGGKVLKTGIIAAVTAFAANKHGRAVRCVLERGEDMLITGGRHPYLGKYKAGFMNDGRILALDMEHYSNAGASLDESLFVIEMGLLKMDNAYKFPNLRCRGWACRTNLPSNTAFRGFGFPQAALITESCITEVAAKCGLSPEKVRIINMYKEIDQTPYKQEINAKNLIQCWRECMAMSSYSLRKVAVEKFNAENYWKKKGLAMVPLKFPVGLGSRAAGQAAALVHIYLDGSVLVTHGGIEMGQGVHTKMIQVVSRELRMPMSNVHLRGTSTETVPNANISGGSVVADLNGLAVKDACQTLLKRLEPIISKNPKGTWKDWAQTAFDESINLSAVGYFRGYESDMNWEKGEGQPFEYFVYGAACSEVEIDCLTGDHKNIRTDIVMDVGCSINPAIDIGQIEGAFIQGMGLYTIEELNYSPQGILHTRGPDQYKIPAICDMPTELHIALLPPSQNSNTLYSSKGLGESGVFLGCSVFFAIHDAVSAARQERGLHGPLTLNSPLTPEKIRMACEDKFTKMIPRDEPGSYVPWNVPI

aldehyde oxidase (AOX) [3] = test system: aldehyde oxidase (AOX)
aldehyde oxidase (AOX) [4] = target: T1, aldehyde oxidase (AOX)
[5] = substrate: CN(Cc1cnc2nc(N)nc(N)c2n1)c1ccc(C(=O)N[C@@H](CCC(=O)O)C(=O)O)cc1
[6] = substrate: c1ccc2cnncc2c1; experiment: cells, lysate or membranes named; details: other: human cytosol; unit not given

How did the kcat (aldehyde oxidase (AOX) [1]) turn out when `CN(C)CCNC(=O)c1cccc2cc3ccccc3nc12` [DACA] was run?
The kcat was 182 min⁻¹.

What about the kcat (aldehyde oxidase (AOX) [2]) of the same molecule?
Its kcat is 2.22 s⁻¹.

What about the Km (aldehyde oxidase (AOX) [3]) of the same molecule?
The Km was 2 µM.

And the Km (aldehyde oxidase (AOX) [4])?
The Km was 7 µM.

For `c1ccc2cnncc2c1` [phthalazine], which Km (aldehyde oxidase (AOX) [1]; New Zealand, rabbit, cytosol) is on record?
Its Km is 23 µM.

What about the kcat (aldehyde oxidase (AOX) [1]) of the same molecule?
Its kcat is 16,000 min^−1.

B1: AOX1 (Macaca mulatta) (protein)
chain: MDRASELLFYVNGRKVIEKNVDPETMLLPYLRKKLRLTGTKYGCGGGGCGACTVMISRYNPITNRIRHHPANACLIPICSLYGTAVTTVEGIGSTHTRIHPVQERIAKCHGTQCGFCTPGMVMSIYTLLRNHPEPTLDQLTDALGGNLCRCTGYRPIIDACKTFCETSGCCQSKENGVCCLDQGINGLPEFEEGSKTSPKLFAEEEFLPLDPTQELIFPPELMIMAEKQPQRTRVFGSERMMWFSPVTLKELLEFKFKYPQAPVIMGNTSVGPQVKFKGVFHPVIISPDRIEELSVVNRTHNGLTLGAGLSLAQVKDILADVVQKLPEEKTQTYHALLKHLGTLAGSQIRNMASLGGHIISRHPDSDLNPILAVGNCTLNLLSKEGKRQIPLNEQFLSKCPNADLKPQEILVSVNIPYSRKLEFVSAFRQAQRQENALAIVNSGMRVFFGEGHGIIRELSISYGGVGPATICAKNSCQKLIGRHWNEEMLDTACRLVLEEVSLSGSAPGGKVEFKRTLIISFLFKFYLEVSQILKKMDPIHYPSLADKYESALEDLHSKHHCSTLKYQHMGPKQHPEDPIGHPIMHLSGVKHATGEAIYCDDMPPVDQELFLTFVTSSRAHAKIVSIDLSEALSMPGVVDVITAEHLSDVNSFCFFTEAEEFLATDKVFCVGQLVCAVLADSEVQAKQAAKQVKIVYQDLEPLILTIKEAIQHNSFFEPERKLEYGNVDEAFKVVDQILEGEIHMGGQEHFYMETQSMLVVPKGEDQEMDVYVSTQFPKYIQDIVASTLKLPANKVMCHVKRVGGAFGGKAFKTGVIAAVTAFAANKHGRAVRCVLERGEDMLITGGRHPYLGKYKAGFMNDGRILALDMEHYSNAGNSLDESLLVIEMGLLKMDNAYKFPNLRCRGWACRTNLPSNTAFRGFGFPQAGLITESCIMEVAAKCGLSPEKVRMINMYKEIDQTPYKQEINAKNLIQCWRECMAVSSYSLRKAAVEKFNAENYWKKKGLAMVPLKYPVGLGSRAAGQAAALVHIYLDGSVLVTHGGIEMGQGVHTKMIQVVSRELGMPISNVHLRGTSTETVPNANVSGGSVVADLNGLAVKDACQILLKRLEPIISKNPKGTWKDWAQTAFDESISLSAVGYFRGYESDINWEKGEGHPFEYFVYGAACSEVEIDCLTGDHKNIRTDIVMDVGCSINPAIDIGQIEGAFIQGMGLYTIEELNYSPQGVLHTRGPDQYKIPAICDTPTEFHISLLPPSENSNTLYSSKGLGESGVFLGCSVFFAIHDAVSAARRERGLHGPLSLNSPLTPEKIRMACEDKFTKMIPRDEPGSCVPWNVPI
For B1, which Km [5] is on record?
The Km was 323 ± 123 µM.

B2: AOX1 (Homo sapiens) (protein)
chain: MDRASELLFYVNGRKVIEKNVDPETMLLPYLRKKLRLTGTKYGCGGGGCGACTVMISRYNPITKRIRHHPANACLIPICSLYGAAVTTVEGIGSTHTRIHPVQERIAKCHGTQCGFCTPGMVMSIYTLLRNHPEPTLDQLTDALGGNLCRCTGYRPIIDACKTFCKTSGCCQSKENGVCCLDQGINGLPEFEEGSKTSPKLFAEEEFLPLDPTQELIFPPELMIMAEKQSQRTRVFGSERMMWFSPVTLKELLEFKFKYPQAPVIMGNTSVGPEVKFKGVFHPVIISPDRIEELSVVNHAYNGLTLGAGLSLAQVKDILADVVQKLPEEKTQMYHALLKHLGTLAGSQIRNMASLGGHIISRHPDSDLNPILAVGNCTLNLLSKEGKRQIPLNEQFLSKCPNADLKPQEILVSVNIPYSRKWEFVSAFRQAQRQENALAIVNSGMRVFFGEGDGIIRELCISYGGVGPATICAKNSCQKLIGRHWNEQMLDIACRLILNEVSLLGSAPGGKVEFKRTLIISFLFKFYLEVSQILKKMDPVHYPSLADKYESALEDLHSKHHCSTLKYQNIGPKQHPEDPIGHPIMHLSGVKHATGEAIYCDDMPLVDQELFLTFVTSSRAHAKIVSIDLSEALSMPGVVDIMTAEHLSDVNSFCFFTEAEKFLATDKVFCVGQLVCAVLADSEVQAKRAAKRVKIVYQDLEPLILTIEESIQHNSSFKPERKLEYGNVDEAFKVVDQILEGEIHMGGQEHFYMETQSMLVVPKGEDQEMDVYVSTQFPKYIQDIVASTLKLPANKVMCHVRRVGGAFGGKVLKTGIIAAVTAFAANKHGRAVRCVLERGEDMLITGGRHPYLGKYKAGFMNDGRILALDMEHYSNAGASLDESLFVIEMGLLKMDNAYKFPNLRCRGWACRTNLPSNTAFRGFGFPQAALITESCITEVAAKCGLSPEKVRIINMYKEIDQTPYKQEINAKNLIQCWRECMAMSSYSLRKVAVEKFNAENYWKKKGLAMVPLKFPVGLGSRAAGQAAALVHIYLDGSVLVTHGGIEMGQGVHTKMIQVVSRELRMPMSNVHLRGTSTETVPNANISGGSVVADLNGLAVKDACQTLLKRLEPIISKNPKGTWKDWAQTAFDESINLSAVGYFRGYESDMNWEKGEGQPFEYFVYGAACSEVEIDCLTGDHKNIRTDIVMDVGCSINPAIDIGQIEGAFIQGMGLYTIEELNYSPQGILHTRGPDQYKIPAICDMPTELHIALLPPSQNSNTLYSSKGLGESGVFLGCSVFFAIHDAVSAARQERGLHGPLTLNSPLTPEKIRMACEDKFTKMIPRDEPGSYVPWNVPI
Which Km [5] does the source give for B2 here?
The Km was 2800 µM.

What about the Vmax [5] of the same molecule?
Its Vmax is 40 to 70 pmol/min/mg.

What about the kcat/Km [5] of the same molecule?
Its kcat/Km is 15 M⁻¹ s⁻¹.

B3: aldehyde oxidase (AOX) (Homo sapiens) (protein)
chain: MDRASELLFYVNGRKVIEKNVDPETMLLPYLRKKLRLTGTKYGCGGGGCGACTVMISRYNPITKRIRHHPANACLIPICSLYGAAVTTVEGIGSTHTRIHPVQERIAKCHGTQCGFCTPGMVMSIYTLLRNHPEPTLDQLTDALGGNLCRCTGYRPIIDACKTFCKTSGCCQSKENGVCCLDQGINGLPEFEEGSKTSPKLFAEEEFLPLDPTQELIFPPELMIMAEKQSQRTRVFGSERMMWFSPVTLKELLEFKFKYPQAPVIMGNTSVGPEVKFKGVFHPVIISPDRIEELSVVNHAYNGLTLGAGLSLAQVKDILADVVQKLPEEKTQMYHALLKHLGTLAGSQIRNMASLGGHIISRHPDSDLNPILAVGNCTLNLLSKEGKRQIPLNEQFLSKCPNADLKPQEILVSVNIPYSRKWEFVSAFRQAQRQENALAIVNSGMRVFFGEGDGIIRELCISYGGVGPATICAKNSCQKLIGRHWNEQMLDIACRLILNEVSLLGSAPGGKVEFKRTLIISFLFKFYLEVSQILKKMDPVHYPSLADKYESALEDLHSKHHCSTLKYQNIGPKQHPEDPIGHPIMHLSGVKHATGEAIYCDDMPLVDQELFLTFVTSSRAHAKIVSIDLSEALSMPGVVDIMTAEHLSDVNSFCFFTEAEKFLATDKVFCVGQLVCAVLADSEVQAKRAAKRVKIVYQDLEPLILTIEESIQHNSSFKPERKLEYGNVDEAFKVVDQILEGEIHMGGQEHFYMETQSMLVVPKGEDQEMDVYVSTQFPKYIQDIVASTLKLPANKVMCHVRRVGGAFGGKVLKTGIIAAVTAFAANKHGRAVRCVLERGEDMLITGGRHPYLGKYKAGFMNDGRILALDMEHYSNAGASLDESLFVIEMGLLKMDNAYKFPNLRCRGWACRTNLPSNTAFRGFGFPQAALITESCITEVAAKCGLSPEKVRIINMYKEIDQTPYKQEINAKNLIQCWRECMAMSSYSLRKVAVEKFNAENYWKKKGLAMVPLKFPVGLGSRAAGQAAALVHIYLDGSVLVTHGGIEMGQGVHTKMIQVVSRELRMPMSNVHLRGTSTETVPNANISGGSVVADLNGLAVKDACQTLLKRLEPIISKNPKGTWKDWAQTAFDESINLSAVGYFRGYESDMNWEKGEGQPFEYFVYGAACSEVEIDCLTGDHKNIRTDIVMDVGCSINPAIDIGQIEGAFIQGMGLYTIEELNYSPQGILHTRGPDQYKIPAICDMPTELHIALLPPSQNSNTLYSSKGLGESGVFLGCSVFFAIHDAVSAARQERGLHGPLTLNSPLTPEKIRMACEDKFTKMIPRDEPGSYVPWNVPI
B3 was tested. Which kcat [6] did it give?
Its kcat is 4.37 s⁻¹.

From PMC4574636 (Biochemical pharmacology, 2015)
